Assay results as given in ChEMBL document CHEMBL5715937, “In vitro activity of Bcr-Abl inhibitors AMN107 and BMS-354825 against clinically relevant imatinib-resistant Abl kinase domain mutants” (Cancer Res, 2005).
Active and inactive are the calls of the source. The rule behind the calls is not given here.

Columns and labels:
[1] = Inhibition of BCR-ABL Q252H mutant (unknown origin) expressed in mouse BaF3 cells assessed as inhibition of cell growth incubated for 72 hrs by […] CellTiter96 viability analysis
[2] = Inhibition of BCR-ABL H396P mutant (unknown origin) expressed in mouse BaF3 cells assessed as inhibition of cell growth incubated for 72 hrs by […] CellTiter96 viability analysis
BaF3 [3] = assay: Induction of apoptosis in mouse BaF3 cells expressing Bcr-Abl Y253H mutant at 30 to 300 nM incubated for 72 hrs by Annexin V-phycoerythrin and 7-amino-actinomycin D staining based PCA instrument analysis; format: functional, cell-based; details: dose 30-300 nM
BaF3 [4] = assay: Induction of apoptosis in mouse BaF3 cells expressing Bcr-Abl Y253F mutant assessed as increase in apoptotic cells at 1500 nM incubated for 72 hrs by Annexin V-phycoerythrin and 7-amino-actinomycin D staining based PCA instrument analysis relative to control; format: functional
[5] = Inhibition of BCR-ABL F311L mutant (unknown origin) expressed in mouse BaF3 cells assessed as inhibition of cell growth incubated for 72 hrs by […] CellTiter96 viability analysis
BaF3 [6] = assay: Induction of apoptosis in mouse BaF3 cells expressing Bcr-Abl F311L mutant assessed as increase in apoptotic cells at 1500 nM incubated for 72 hrs by Annexin V-phycoerythrin and 7-amino-actinomycin D staining based PCA instrument analysis relative to control; format: functional
cells [7] = details: Mus musculus, BaF3, 3 h
BaF3 [8] = assay: Induction of apoptosis in mouse BaF3 cells expressing Bcr-Abl Q252H mutant assessed as increase in apoptotic cells at 1500 nM incubated for 72 hrs by Annexin V-phycoerythrin and 7-amino-actinomycin D staining based PCA instrument analysis relative to control; format: functional
[9] = Inhibition of BCR-ABL E255V mutant (unknown origin) expressed in mouse BaF3 cells assessed as inhibition of cell growth incubated for 72 hrs by […] CellTiter96 viability analysis
BaF3 [10] = assay: Induction of apoptosis in mouse BaF3 cells expressing Bcr-Abl E255V mutant assessed as increase in apoptotic cells at 1500 nM incubated for 72 hrs by Annexin V-phycoerythrin and 7-amino-actinomycin D staining based PCA instrument analysis relative to control; format: functional
[11] = Inhibition of BCR-ABL L387M mutant (unknown origin) expressed in mouse BaF3 cells assessed as inhibition of tyrosine phosphorylation incubated for 3 hrs by immunoblotting analysis; format: cell-based; details: BaF3, 3 h
cells [12] = details: Mus musculus, BaF3, 3 h; remark: listed apart in the source
cells [13] = details: Mus musculus, BaF3, 72 h
cells [14] = details: Mus musculus, BaF3, 3 h; remark: listed apart in the source
[15] = Inhibition of BCR-ABL G250E mutant (unknown origin) expressed in mouse BaF3 cells assessed as inhibition of cell growth incubated for 72 hrs by […] CellTiter96 viability analysis
[16] = Inhibition of BCR-ABL H396R mutant (unknown origin) expressed in mouse BaF3 cells assessed as inhibition of cell growth incubated for 72 hrs by […] CellTiter96 viability analysis
cells [17] = details: Mus musculus, BaF3, 3 h; remark: listed apart in the source
BaF3 [18] = assay: Induction of apoptosis in mouse BaF3 cells expressing Bcr-Abl F317L mutant at 30 to 300 nM incubated for 72 hrs by Annexin V-phycoerythrin and 7-amino-actinomycin D staining based PCA instrument analysis; format: functional, cell-based; details: dose 30-300 nM
[19] = Inhibition of BCR-ABL Y253F mutant (unknown origin) expressed in mouse BaF3 cells assessed as inhibition of cell growth incubated for 72 hrs by […] CellTiter96 viability analysis
[20] = Inhibition of BCR-ABL F311L mutant (unknown origin) expressed in mouse BaF3 cells assessed as inhibition of tyrosine phosphorylation incubated for 3 hrs by immunoblotting analysis; format: cell-based; details: BaF3, 3 h
[21] = Inhibition of BCR-ABL phosphorylation in mouse BaF3 cells incubated for 3 hrs by immunoblotting analysis; format: functional, cell-based
cells [22] = details: Mus musculus, BaF3, 3 h; remark: listed apart in the source
BaF3 [23] = assay: Induction of apoptosis in mouse BaF3 cells expressing Bcr-Abl H396P mutant at 30 to 300 nM incubated for 72 hrs by Annexin V-phycoerythrin and 7-amino-actinomycin D staining based PCA instrument analysis; format: functional, cell-based; details: dose 30-300 nM
BaF3 [24] = assay: Induction of apoptosis in mouse BaF3 cells expressing wild-type Bcr-Abl assessed as increase in apoptotic cells at 1500 nM incubated for 72 hrs by Annexin V-phycoerythrin and 7-amino-actinomycin D staining based PCA instrument analysis relative to control; format: functional
BaF3 [25] = assay: Induction of apoptosis in mouse BaF3 cells expressing wild-type Bcr-Abl at 30 to 300 nM incubated for 72 hrs by Annexin V-phycoerythrin and 7-amino-actinomycin D staining based PCA instrument analysis; format: functional, cell-based; details: dose 30-300 nM
BaF3 [26] = assay: Induction of apoptosis in mouse BaF3 cells expressing Bcr-Abl Q252H mutant at 30 to 300 nM incubated for 72 hrs by Annexin V-phycoerythrin and 7-amino-actinomycin D staining based PCA instrument analysis; format: functional, cell-based; details: dose 30-300 nM
cells [27] = details: Mus musculus, BaF3, 3 h; remark: listed apart in the source
BaF3 [28] = assay: Induction of apoptosis in mouse BaF3 cells expressing Bcr-Abl E255K mutant at 30 to 300 nM incubated for 72 hrs by Annexin V-phycoerythrin and 7-amino-actinomycin D staining based PCA instrument analysis; format: functional, cell-based; details: dose 30-300 nM
BaF3 [29] = assay: Induction of apoptosis in mouse BaF3 cells expressing Bcr-Abl L387M mutant at 30 to 300 nM incubated for 72 hrs by Annexin V-phycoerythrin and 7-amino-actinomycin D staining based PCA instrument analysis; format: functional, cell-based; details: dose 30-300 nM
BaF3 [30] = assay: Induction of apoptosis in mouse BaF3 cells expressing Bcr-Abl E255K mutant assessed as increase in apoptotic cells at 1500 nM incubated for 72 hrs by Annexin V-phycoerythrin and 7-amino-actinomycin D staining based PCA instrument analysis relative to control; format: functional
[31] = Inhibition of BCR-ABL M351T mutant (unknown origin) expressed in mouse BaF3 cells assessed as inhibition of cell growth incubated for 72 hrs by […] CellTiter96 viability analysis
BaF3 [32] = assay: Induction of apoptosis in mouse BaF3 cells expressing Bcr-Abl F317L mutant assessed as increase in apoptotic cells at 1500 nM incubated for 72 hrs by Annexin V-phycoerythrin and 7-amino-actinomycin D staining based PCA instrument analysis relative to control; format: functional
cells [33] = details: Mus musculus, BaF3, 3 h; remark: listed apart in the source
[34] = Inhibition of BCR-ABL V379l mutant (unknown origin) expressed in mouse BaF3 cells assessed as inhibition of cell growth incubated for 72 hrs by […] CellTiter96 viability analysis
[35] = BaF3, time 72 hrs, condition chronic myelogenous leukemia

Which IC50 ([1]; BaF3, 72 h) does the source give for `Cc1cn(-c2cc(NC(=O)c3ccc(C)c(Nc4nccc(-c5cccnc5)n4)c3)cc(C(F)(F)F)c2)cn1` [NILOTINIB] here?
Its IC50 is 70 nM.

What about the IC90 [1, 35] of the same compound?
Its IC90 is 156 nM.

And the IC50 ([2]; BaF3, 72 h)?
The IC50 was 41 nM.

What about the IC90 [2, 35] of the same compound?
Its IC90 is 69 nM.

And the Activity (BaF3 [3])?
The Activity was “Active”.

And the Activity (BaF3 [4])?
The Activity was >90%.

And the IC50 ([5]; BaF3, 72 h)?
The IC50 was 23 nM.

And the IC90 [5, 35]?
Its IC90 is 48 nM.

What about the Activity (BaF3 [6]) of the same compound?
Its Activity is >90%.

What about the IC50 (cells [7]) of the same compound?
The IC50 was 15 nM.

What about the Activity (BaF3 [8]) of the same compound?
Its Activity is >90%.

What about the IC50 ([9]; BaF3, 72 h) of the same compound?
Its IC50 is 430 nM.

What about the IC90 [9, 35] of the same compound?
Its IC90 is 2000 nM.

What about the Activity (BaF3 [10]) of the same compound?
Its Activity is 65%.

What about the IC50 [11] of the same compound?
Its IC50 is 33 nM.

What about the IC50 (cells [12]) of the same compound?
Its IC50 is 250 nM.

And the IC50 (cells [13])?
The IC50 was > 2000 nM.

What about the IC50 (cells [14]) of the same compound?
Its IC50 is 47 nM.

What about the IC50 ([15]; BaF3, 72 h) of the same compound?
Its IC50 is 48 nM.

And the IC90 [15, 35]?
The IC90 was 152 nM.

What about the IC50 ([16]; BaF3, 72 h) of the same compound?
The IC50 was 41 nM.

What about the IC90 [16, 35] of the same compound?
The IC90 was 73 nM.

What about the IC50 (cells [17]) of the same compound?
The IC50 was 55 nM.

What about the Activity (BaF3 [18]) of the same compound?
Its Activity is “Active”.

And the IC50 ([19]; BaF3, 72 h)?
Its IC50 is 125 nM.

And the IC90 [19, 35]?
The IC90 was 215 nM.

And the IC50 [20]?
Its IC50 is 44 nM.

What about the IC50 [21] of the same compound?
The IC50 was “Not Active”.

What about the IC50 (cells [22]) of the same compound?
The IC50 was 70 nM.

What about the Activity (BaF3 [23]) of the same compound?
Its Activity is “Active”.

What about the Activity (BaF3 [24]) of the same compound?
The Activity was >90%.

And the Activity (BaF3 [25])?
Its Activity is “Active”.

What about the Activity (BaF3 [26]) of the same compound?
Its Activity is “Active”.

What about the IC50 (cells [27]) of the same compound?
The IC50 was 155 nM.

And the Activity (BaF3 [28])?
Its Activity is “Active”.

What about the Activity (BaF3 [29]) of the same compound?
Its Activity is “Active”.

What about the Activity (BaF3 [30]) of the same compound?
The Activity was >90%.

What about the IC50 ([31]; BaF3, 72 h) of the same compound?
Its IC50 is 15 nM.

And the IC90 [31, 35]?
The IC90 was 31 nM.

What about the Activity (BaF3 [32]) of the same compound?
The Activity was >90%.

What about the IC50 (cells [33]) of the same compound?
Its IC50 is 8 nM.

What about the IC50 ([34]; BaF3, 72 h) of the same compound?
The IC50 was 51 nM.

What about the IC90 [34, 35] of the same compound?
The IC90 was 115 nM.
